Measured values: patent US9580430B2, “9H-pyrimido[4,5-B]indoles and related analogs as BET bromodomain inhibitors” (THE REGENTS OF THE UNIVERSITY OF MICHIGAN, priority 2014, dated 2017)

What was measured:
PSA and ERG = assay: QRT-PCR and immunoblot of AR-target genes in VCaP; format: cell-based; conditions: VCaP cells; FIGS. 4 and 5
Method: (§1) Total RNA was isolated from cells using RNeasy Mini Kit (Qiagen) and cDNA was synthesized from 1,000 ng total RNA using SuperScript III First-Strand Synthesis SuperMix (Invitrogen). QPCRs were performed in duplicate or triplicate using Taqman assays (Applied Biosystems) or standard SYBR green reagents and protocols on a StepOnePlus Real-Time PCR system (Applied Biosystems). The target mRNA expression was quantified using ΔΔCt method and normalized to GAPDH expression. All primers were designed using Primer 3 (http://frodo.wi.mit.edu/primer3/) and synthesized by Integrated DNA Technologies (Coralville, Iowa).
(§2) For Western blot analysis, 200 ug total protein extract was boiled in sample buffer and 10-20 μg aliquots were separated by SDS-PAGE and transferred onto Polyvinylidene Difluoride membrane (GE Healthcare). The membrane was incubated for one hour in blocking buffer [Tris-buffered saline, 0.1% Tween (TBS-T), 5% nonfat dry milk] followed by incubation overnight at 4° C. with the primary antibody. Following a wash with TBS-T, the blot was incubated with horseradish peroxidase-conjugated secondary antibody and signals were visualized by enhanced chemiluminescence system as per manufacturer's protocol (GE Healthcare).

VCaP xenograft model = assay: Spontaneous metastasis in the VCaP xenograft model (human Alu qPCR); format: in vivo, mice; conditions: femur, liver and spleen; JQ1 50 mg/kg, MDV3100 10 mg/kg
Method: (§3) Four week-old male SCID C.B17 mice were procured from a breeding colony at University of Michigan. All procedures involving mice were approved by the University Committee on Use and Care of Animals (UCUCA) at the University of Michigan and conform to all regulatory standards. Mice were anesthetized using 2% Isoflurane (inhalation) and 2×10^6 VCaP prostate cancer cells suspended in 100 μl of PBS with 50% Matrigel (BD Biosciences) were implanted subcutaneously into the dorsal flank on both sides of the mice. […] Growth in tumor volume was recorded using digital calipers and tumor volumes were estimated using the formula (π/6) (L×W^2), where L=length of tumor and W=width. Loss of body weight during the course of the study was also monitored. At the end of the studies mice were sacrificed and tumors extracted and weighed. Additionally, femur bone marrow, liver and spleen were harvested to examine spontaneous metastasis by detecting human-Alu sequence. […] All procedures involving mice were approved by the University Committee on Use and Care of Animals (UCUCA) at the University of Michigan and conform to all regulatory standards.

MYC signature [1] = assay: Gene expression array, GSEA of MYC signature, LNCaP; format: cell-based; conditions: LNCaP after JQ1 treatment
Method: (§4) Cells treated with only vehicle or 10 nM DHT served as controls. […] Expression profiling was performed using the Agilent Whole Human Genome Oligo Microarray (SantaClara, Calif.) according to the manufacturer's protocol. All samples were run in technical duplicates or quadruplets against control. Over- and under-expressed gene sets were generated by filtering to include only 2-fold average over- or underexpression (Log ratio with p<0.001) in all hybridizations.

MYC signature [2] = assay: Gene expression array, GSEA of MYC signature, 22RV1; format: cell-based; conditions: 22RV1 after JQ1 treatment
Method: as §4

[3] = test system: castration-resistant VCaP tumor xenografts; assay: Castration-resistant VCaP tumor xenograft (CRPC experiment); format: in vivo; conditions: castrated mice; 50 mg/kg, 5 days/week; FIG. 26
Method: as §3

VCaP tumor xenograft = test system: VCaP tumor xenograft
Method: as §3

MYC = MYC levels in prostate cancer cells; format: cell-based; conditions: AR-positive cells sensitive to JQ1, not AR-negative cells
Method: as §1, §2

[4] = Prostate histology and hormone measurement in mice; format: in vivo
Method: Highly hormone responsive seminal vesicles attached to prostate were harvested from mice after four weeks of injection. Prostate were fixed in formalin solution and processed for sectioning. Standard H&E staining was achieved on the formalin fixed sections and were used to image the different lobes of the gland. To determine the testosterone levels, blood samples were collected by cardiac puncture from mice anesthetized with isoflurane. The serum was separated from the blood and stored at −80° C. until assayed. Serum testosterone levels were measured by the Ligand Assay at University of Michigan-ULAM Pathology Cores for Animal Research.

MYC signature [5] = assay: Gene expression array, GSEA of MYC signature, VCaP; format: cell-based; conditions: VCaP after JQ1 treatment
Method: as §4

[6] = gene set SCHLOSSER_MYC_AND_SERUM_RESPONSE_SYNERGY
[7] = gene set SCHLOSSER_MYC_TARGETS_AND_SERUM_RESPONSE_UP
[8] = gene set SCHUHMACHER_MYC_TARGETS_UP

Compound: Cc1sc2c(c1C)C(c1ccc(Cl)cc1)=N[C@@H](CC(=O)OC(C)(C)C)c1nnc(C)n1-2 [JQ1]
- PSA and ERG mRNA and protein level (PSA and ERG): dose-dependent decrease in PSA and ERG
- spontaneous metastasis (VCaP xenograft model): no evidence of metastasis
- NES (MYC signature [1]; gene set MYC_UP.V1_UP): −2.068
- NES (MYC signature [1]; [6]): −1.751
- NES (MYC signature [1]; [7]): −1.957
- NES (MYC signature [1]; [8]): −2.403
- NES (MYC signature [2]; gene set MYC_UP.V1_UP): −1.712
- NES (MYC signature [2]; [6]): −1.521
- NES (MYC signature [2]; [7]): 1.353
- NES (MYC signature [2]; [8]): −1.851
- reduction in castration-resistant tumors [3]: 50%
- tumor volume/weight (VCaP tumor xenograft; VCaP tumor-bearing mice, JQ1 50 mg/kg, MDV3100 10 mg/kg, 5 days/week, FIGS. 23-25): significant reduction in tumor volume/weight
- tolerability (VCaP tumor xenograft; mouse, in vivo): well tolerated
- MYC levels (MYC): attenuated
- physiologic androgen-regulated processes [4]: No effect on physiologic androgen-regulated processes
- testes size [4]: reduced testes size
- NES (MYC signature [5]; gene set MYC_UP.V1_UP): −2.265
- NES (MYC signature [5]; [6]): −1.818
- NES (MYC signature [5]; [7]): −1.824
- NES (MYC signature [5]; [8]): −2.275
